In patent US20110105550A1 (SALIX PHARMACEUTICALS, LTD., priority 2008, published 2011):

Tests used:
Assay type in all cases: physicochemical
[1] = Stressing under various relative humidities (RH), solid form by XRPD
Text: The jar was sealed and stored at either ambient temperature or in an oven at elevated temperature.

[2] = Automated moisture sorption/desorption (moisture balance)
Procedure: Moisture sorption/desorption data were collected on a VTI SGA-100 Vapor Sorption Analyzer. Sorption and desorption data were collected over a range of 5% to 95% relative humidity (RH) at 10% RH intervals under a nitrogen purge. Samples were not dried prior to analysis. Equilibrium criteria used for analysis were less than 0.0100% weight change in 5 minutes, with a maximum equilibration time of 3 hours if the weight criterion was not met. Data were not corrected for the initial moisture content of the samples. NaCl and PVP were used as calibration standards.

[3] = Rifaximin drying experiments, solid form by XRPD
[4] = Dynamic vapor sorption/desorption (DVS) of amorphous preparations
Procedure: Based on the data, relative humidity stressing studies of the two amorphous materials at 40° C./75% RH are recommended.

## CO[C@H]1/C=C/O[C@@]2(C)Oc3c(C)c(O)c4c(O)c(c5c(nc6cc(C)ccn65)c4c3C2=O)NC(=O)/C(C)=C\C=C\[C@H](C)[C@H](O)[C@@H](C)[C@@H](O)[C@@H](C)[C@H](OC(C)=O)[C@@H]1C [Form α-dry]
[1]; 33% RH, 2 days
  Final Form (XRPD): α
[1]; 33% RH, 7 days
  Final Form (XRPD): α
[1]; 43% RH, 4 days
  Final Form (XRPD): α + β
[1]; 43% RH, 11 days
  Final Form (XRPD): β + (α)
[1]; 58% RH, 2 days
  Final Form (XRPD): β
[1]; 58% RH, duration not printed in Table 1, am = amorphous, listed as α dry
  RH stability: solid form after exposure, 58% RH: β
[1]; 75% RH, 2 days
  Final Form (XRPD): β
[1]; 75% RH, duration not printed in Table 1, am = amorphous, listed as α dry
  RH stability: solid form after exposure, 75% RH: β
[1]; 94% RH, 2 days
  Final Form (XRPD): β
[2]; sorption from 5% RH to 95% RH, desorption from 95% RH to 5% RH, listed as α dry
  Post-moisture sorption/desorption XRPD form: α dry
[3]; vac oven 50° C., 1 day
  XRPD Form after drying: α dry
[3]; vac oven 50° C., 1 day, vac oven 60° C.
  XRPD Form after drying: α dry
[3]; vac oven 60-65° C., 3 days, listed as α dry
  XRPD Form after drying: α dry
[3]; vacuum dried (Table 1 column), listed as α dry
  Solid form after vacuum drying: α dry

## CO[C@H]1/C=C/O[C@@]2(C)Oc3c(C)c(O)c4c(O)c(c5c(nc6cc(C)ccn65)c4c3C2=O)NC(=O)/C(C)=C\C=C\[C@H](C)[C@H](O)[C@@H](C)[C@@H](O)[C@@H](C)[C@H](OC(C)=O)[C@@H]1C [Form γ, reference compound]
[2]; desorption 95 to 5% RH
  wt loss from 95 to 5% RH: 11.7%
[2]; equilibration at 5% RH
  wt loss upon equilibration at 5% RH: 2.4%
[2]; moisture balance
  Hygroscopicity: hygroscopic
[2]; sorption 5 to 95% RH
  wt gain from 5 to 95% RH: 10.8%
[3]; vac oven, ambient, 1 day
  XRPD Form after drying: remained unchanged

## CO[C@H]1/C=C/O[C@@]2(C)Oc3c(C)c(O)c4c(O)c(c5c(nc6cc(C)ccn65)c4c3C2=O)NC(=O)/C(C)=C\C=C\[C@H](C)[C@H](O)[C@@H](C)[C@@H](O)[C@@H](C)[C@H](OC(C)=O)[C@@H]1C [lyophilized amorphous rifaximin]
[4]; 5 to 95% relative humidity
  Hygroscopicity (DVS): moderately hygroscopic
[4]; from 5 to 95% relative humidity
  DVS uptake of water (weight gain): approximately 8%
[4]; post-DVS
  Crystallization of post-DVS sample: Crystallization was not observed
